Source: ChEMBL document CHEMBL1641593, “Benzothieno[3,2-b]quinolinium and 3-(phenylthio)quinolinium compounds: Synthesis and evaluation against opportunistic fungal pathogens” (Bioorg Med Chem, 2011)
Blank lines part the entries; values can stand above or below the compound they belong to. Calls of active or inactive are those of the source. The rule behind the calls is not given here.

Columns and labels:
[1] = test system: Aspergillus fumigatus; assay: Antifungal activity against Aspergillus fumigatus ATCC 90906 by CLSI method; format: functional, organism-based
[2] = test system: Cryptococcus neoformans; assay: Antifungal activity against Cryptococcus neoformans ATCC 90113 by CLSI method; format: functional, organism-based
[3] = test system: Candida albicans; assay: Antifungal activity against Candida albicans ATCC 90028 by CLSI method; format: functional, organism-based
[4] = test system: Vero; assay: Cytotoxicity against african green monkey Vero cells after 48 hrs by neutral red assay; format: cell-based; conditions: Chlorocebus sabaeus
[5] = test system: Cryptococcus neoformans; assay: Antifungal activity against Cryptococcus neoformans ATCC 90113 at 20 ug/ml by CLSI method; format: functional, organism-based
[6] = test system: Candida albicans; assay: Antifungal activity against Candida albicans ATCC 90028 at 20 ug/ml by CLSI method; format: functional, organism-based
[7] = test system: Pichia kudriavzevii; assay: Antifungal activity against Candida krusei ATCC 6258 by CLSI method; format: functional, organism-based
[8] = Toxicity in Candida albicans B311 ATCC 32354-infected ip dosed mouse administered qd for 3 days; format: organism-based; conditions: in vivo
[9] = test system: Cryptococcus neoformans; assay: Antifungal activity against Cryptococcus neoformans ATCC 52657-infected mouse assessed as reduction of CFU per gram of brain at 5 mg/kg, ip qd for 5 days relative to control; format: functional; design: scale not given: the % may be the effect or the level left; conditions: route intraperitoneal
[10] = test system: Candida albicans; assay: Antifungal activity against Candida albicans B311 ATCC 32354-infected mouse assessed as reduction of CFU per gram of kidney at 5 mg/kg, ip qd for 3 days relative to control; format: functional; design: scale not given: the % may be the effect or the level left; conditions: route intraperitoneal
[11] = test system: Candida albicans; assay: Antifungal activity against Candida albicans B311 ATCC 32354-infected mouse assessed as reduction of CFU per gram of kidney at 1 mg/kg, ip qd for 3 days relative to control; format: functional; design: scale not given: the % may be the effect or the level left; conditions: route intraperitoneal
[12] = test system: Cryptococcus neoformans; assay: Antifungal activity against Cryptococcus neoformans ATCC 52657-infected mouse assessed as reduction of CFU per gram of brain at 1.2 mg/kg, ip qd for 5 days relative to control; format: functional; design: scale not given: the % may be the effect or the level left; conditions: route intraperitoneal
[13] = test system: Mus musculus; assay: Toxicity in Candida albicans B311 ATCC 32354-infected mouse assessed as gross pathological lesions at 1 to 10 mg/kg, ip qd for 3 days; format: organism-based; design: dose 1-10 mg/kg, route intraperitoneal; conditions: in vivo, 72 h
[14] = Toxicity in Candida albicans B311 ATCC 32354-infected mouse assessed as white deposits of unknown origin in peritoneal cavity at 20 mg/kg, ip qd for 3 days; format: organism-based; design: dose 20 mg/kg, route intraperitoneal; conditions: in vivo, 72 h
[15] = test system: Cryptococcus neoformans; assay: Antifungal activity against Cryptococcus neoformans ATCC 52657-infected mouse assessed as reduction of CFU per gram of brain at 1 mg/kg, ip qd for 5 days relative to control; format: functional; design: scale not given: the % may be the effect or the level left; conditions: route intraperitoneal
[16] = test system: Candida albicans; assay: Antifungal activity against Candida albicans B311 ATCC 32354-infected mouse assessed as reduction of CFU per gram of kidney at 10 mg/kg, ip qd for 3 days relative to control; format: functional; design: scale not given: the % may be the effect or the level left; conditions: route intraperitoneal
[17] = test system: Candida albicans; assay: Antifungal activity against Candida albicans B311 ATCC 32354-infected mouse assessed as reduction of CFU per gram of kidney at 1.2 mg/kg, ip qd for 3 days relative to control; format: functional; design: scale not given: the % may be the effect or the level left; conditions: route intraperitoneal
[18] = test system: Cryptococcus neoformans; assay: Antifungal activity against Cryptococcus neoformans ATCC 52657-infected mouse assessed as reduction of CFU per gram of brain at 10 mg/kg, ip qd for 5 days relative to control; format: functional; design: scale not given: the % may be the effect or the level left; conditions: route intraperitoneal
[19] = test system: Mus musculus; assay: Toxicity in Candida albicans B311 ATCC 32354-infected mouse assessed as change in body weight at 1 to 10 mg/kg, ip qd for 3 days; format: organism-based; design: dose 1-10 mg/kg, route intraperitoneal; conditions: in vivo, 72 h
[20] = test system: Aspergillus fumigatus; assay: Antifungal activity against Aspergillus fumigatus ATCC 90906 at 20 ug/ml by CLSI method; format: functional, organism-based
[21] = Candida albicans, ATCC 90028, read-out: MFC

Structure (SMILES): C[n+]1c2cccc(Cl)c2cc2sc3ccccc3c21.O=S(=O)([O-])C(F)(F)F
- Activity [5]: inactive
- IC50 [1]: 3 µg/mL
- MIC [1]: 10 µg/mL
- Activity [6]: inactive

Structure (SMILES): [I-].c1ccc(CCCCC[n+]2cc(Sc3ccccc3)cc3ccccc32)cc1
- MFC [1]: > 20 µg/mL
- MIC [1]: 1.3 µg/mL
- IC50 [2]: 1.5 µg/mL
- MFC [2]: 10 µg/mL
- MIC [2]: 5 µg/mL
- MFC [3]: 20 µg/mL
- IC50 ([3]; Candida albicans, ATCC 90028): 5.5 µg/mL
- MIC ([3]; Candida albicans, ATCC 90028): 10 µg/mL
- MFC [3, 21]: > 20 µg/mL
- IC50 [7]: 1.5 µg/mL
- MFC [7]: 20 µg/mL
- MIC [7]: 5 µg/mL

Structure (SMILES): COc1cccc2c1cc1sc3ccccc3c1[n+]2C.O=S(=O)([O-])C(F)(F)F
- IC50 [4]: > 4.7 µg/mL
- IC50 [1]: 0.8 µg/mL
- MIC [1]: 1.3 µg/mL
- IC50 ([3]; Candida albicans, ATCC 90028): 15 µg/mL
- MIC ([3]; Candida albicans, ATCC 90028): > 20 µg/mL

Structure (SMILES): COc1ccc2cc3sc4ccccc4c3[n+](C)c2c1.O=S(=O)([O-])C(F)(F)F
- IC50 [4]: > 10 µg/mL
- MTD at 72 h [8]: 10 mg/kg
- Activity [9]: 26%
- Activity [10]: 26%
- Activity [11]: 34%
- IC50 [1]: 0.4 µg/mL
- MIC [1]: 0.6 µg/mL
- Activity [12]: 24%
- Activity [13]: Non-toxic
- Activity [14]: Toxic
- Activity [15]: 50%
- Activity [16]: 86%
- IC50 [2]: 6 µg/mL
- MIC [2]: > 20 µg/mL
- IC50 ([3]; Candida albicans, ATCC 90028): 1.5 µg/mL
- MIC ([3]; Candida albicans, ATCC 90028): 10 µg/mL
- Activity [17]: 99%
- Activity [18]: 10%
- Activity [19]: Non-toxic

Structure (SMILES): C[n+]1c2cc(Cl)ccc2cc2sc3ccccc3c21.O=S(=O)([O-])C(F)(F)F
- Activity [20]: inactive
- IC50 [4]: > 10 µg/mL
- IC50 [2]: 10 µg/mL
- MIC [2]: > 20 µg/mL
- Activity [6]: inactive

Structure (SMILES): C[n+]1c2ccccc2cc2sc3ccccc3c21.O=S(=O)([O-])C(F)(F)F
- IC50 [4]: > 23.8 µg/mL
- MIC [1]: > 20 µg/mL
- IC50 [2]: > 15 µg/mL
- MIC [2]: > 20 µg/mL
- IC50 ([3]; Candida albicans, ATCC 90028): 10 µg/mL
- MIC ([3]; Candida albicans, ATCC 90028): > 20 µg/mL

More lines, main results first:

- MIC [1]: > 2.5 µg/mL
- IC50 [2]: 15 µg/mL
- MIC [2]: 20 µg/mL
- IC50 ([3]; Candida albicans, ATCC 90028): 6 µg/mL
- MIC ([3]; Candida albicans, ATCC 90028): 20 µg/mL
Structure (SMILES): C[n+]1cc(Sc2ccccc2)cc2ccccc21.[I-]
- MFC [1]: 20 µg/mL
- MFC [2]: > 20 µg/mL
- MFC [3, 21]: > 20 µg/mL

- MIC [1]: > 20 µg/mL
- MIC [2]: > 20 µg/mL
- MIC ([3]; Candida albicans, ATCC 90028): 7.8 µg/mL
Structure (SMILES): C[n+]1c2ccccc2cc2sc3ccccc3c21.[I-]
- IC50 [4]: > 23.8 µg/mL

- IC50 [1]: 6.5 µg/mL
- MIC [1]: 10 µg/mL
- IC50 [2]: 15 µg/mL
- MIC [2]: > 20 µg/mL
- IC50 ([3]; Candida albicans, ATCC 90028): > 20 µg/mL
- MIC ([3]; Candida albicans, ATCC 90028): > 20 µg/mL
Structure (SMILES): C[n+]1c2ccccc2cc2sc3c(Cl)cccc3c21.[I-]

- IC50 [1]: 1 µg/mL
- MIC [1]: 2.5 µg/mL
- IC50 ([3]; Candida albicans, ATCC 90028): 6 µg/mL
- MIC ([3]; Candida albicans, ATCC 90028): 20 µg/mL
Structure (SMILES): COc1ccc2c(c1)sc1cc3ccccc3[n+](C)c12.[I-]
- Activity [5]: inactive

- IC50 [1]: 3 µg/mL
- MIC [1]: 5 µg/mL
- IC50 [2]: 10 µg/mL
- MIC [2]: > 20 µg/mL
- IC50 ([3]; Candida albicans, ATCC 90028): 7 µg/mL
- MIC ([3]; Candida albicans, ATCC 90028): > 20 µg/mL
Structure (SMILES): COc1cccc2c1sc1cc3ccccc3[n+](C)c12.[I-]
- IC50 [4]: > 10 µg/mL

- IC50 [1]: 1.5 µg/mL
- MIC [1]: 2.5 µg/mL
- IC50 ([3]; Candida albicans, ATCC 90028): 15 µg/mL
- MIC ([3]; Candida albicans, ATCC 90028): > 20 µg/mL
Structure (SMILES): COc1cccc2c1cc1sc3ccccc3c1[n+]2C.[I-]
